According to PubChem BioAssay AID1611 (NINDS Approved Drug Screening Program, 2009):

System: human cells, HSE-luciferase heat shock reporter
Experiment: HSE-luciferase reporter activators – cell-based (AID 1611)
Conditions: measured here: HSE reporter induction potency

EC50 | Structure (SMILES)
4.6 µM | O=C1c2ccccc2C(=O)C1c1ccccc1
4.6 µM | CC[C@H]1OC(=O)[C@H](C)[C@@H](O[C@H]2C[C@@](C)(OC)[C@@H](O)[C@H](C)O2)[C@H](C)[C@@H](O[C@@H]2O[C@H](C)C[C@H](N(C)C)[C@H]2O)[C@](C)(O)C[C@@H](C)CN(C)[C@H](C)[C@@H](O)[C@]1(C)O

Second part, the compound before the results:

Structure (SMILES) | EC50
Cc1ccc(C(=O)c2ccc(CC(=O)O)n2C)cc1 | 5 µM
CC(COc1ccccc1)NC(C)[C@H](O)c1ccc(O)cc1 (stereo partly specified) | 4.3 µM
CC(=O)O[C@]1(C(C)=O)CCC2C3C=C(Cl)C4=CC(=O)[C@@H]5C[C@@H]5[C@]4(C)C3CC[C@@]21C (stereo partly specified) | 4.7 µM
C[C@H]1O[C@@H](O[C@H]2[C@@H](O)C[C@H](O[C@H]3[C@@H](O)C[C@H](O[C@H]4CC[C@]5(C)C6CC[C@]7(C)[C@@H](C8=CC(=O)OC8)CC[C@]7(O)C6CC[C@@H]5C4)O[C@@H]3C)O[C@@H]2C)C[C@H](O)[C@@H]1O (stereo partly specified) | 4 µM
